Data from patent publication US12453728B1, “Compositions comprising inhibitors of microsomal triglyceride transfer protein and Apo-B secretion” (Redux Therapeutics, LLC, priority 2024, dated 2025).

Experiments:
[1] = in vivo
[2] = Lipid profile and glucose; conditions: for glucose: olanzapine study, healthy volunteers
[3] = Body weight change during olanzapine treatment
[4] = Postprandial triglycerides after a standardized breakfast in subjects treated with olanzapine; conditions: normal healthy volunteers; 10 mg olanzapine alone, or 10 mg olanzapine + 200 mg Compound 3 BID (days 8-15)
[5] = Effect of Compound 3 on steady-state pharmacokinetics of olanzapine; assay type: in vivo, human; conditions: 200 mg Compound 3 BID with 10 mg olanzapine; days 8 and 15
Method: Postprandial triglycerides and lipid profiles were assessed on study days 1, 8, and 15, olanzapine pharmacokinetics was assessed on study days 8 and 15, and safety and tolerability were assessed throughout. On each of these study days, subjects consumed a standardized breakfast (˜900 kcal; 55% of kcal from fat) in 15 minutes. Blood samples were drawn prior to meal consumption and 1, 2, 3, 4, 6 and 8 hours after initiation of meal.

Row | impact on the pharmacokinetic profile of olanzapine [5] | SMILES | SAEs, fatal events, discontinuations due to adverse events [1] | glucose [2] | weight gain during the first week of treatment ([3]; normal healthy volunteers, 10 mg olanzapine alone, first week) | postprandial triglycerides [4] | LDL-C ([2]; Day 9-15, olanzapine alone vs olanzapine + Compound 3) | blunting of body weight gain from olanzapine ([3]; second week of the study, 10 mg olanzapine + 200 mg Compound 3 BID)
1 |  | Cc1cc2c(s1)Nc1ccccc1N=C2N1CCN(C)CC1 [olanzapine, reference compound] | No SAEs, fatal events, or discontinuations due to adverse events | No changes in glucose were observed | significant weight gain |  |  | 
2 | did not significantly impact | COc1cccc(C(=O)Nc2ccc3c(c2)CCN(C(=O)Oc2ccccc2)C3)c1-c1ccc(C(F)(F)F)cc1 [Compound 3] |  | No changes in glucose were observed |  | greatly reduced postprandial triglycerides | blunted | significant blunting in body weight gain
